US6441029B1, “Method of suppressing tumor growth with combinations of isoprenoids and statins” (Wisconsin Alumni Research Foundation, priority 1997, dated 2002)
Values joined by “and” are separate entries in the source; they are usually repeats but may differ in a detail not shown here. Equal values may be shown once.

What was measured:
[1] = system: murine melanoma B16/F10 cells; test: In vitro growth assays of lovastatin, β-ionone and γ-tocotrienol alone and combined (Table 5); format: cell-based
[2] = system: implanted murine melanoma B16F10 tumors; details: 50 mg/kg administered ip on alternate days; cited from earlier work
[3] = up to 80 mg/d, five-year follow-up of 745 patients (14 observed, 21 predicted); cited from earlier work
[4] = cited from earlier work

CC[C@H](C)C(=O)O[C@H]1C[C@@H](C)C=C2C=C[C@H](C)[C@H](CC[C@@H]3C[C@@H](O)CC(=O)O3)[C@H]21 [Lovastatin, [1S[1a(R),3α,7β,8β(2S,4S),8aβ]]-1,2,3,7,8,8a-hexahydro-3,7-dimethyl-8-[2-(tetrahydro-4-hydroxy-6-oxo-2H-pyran-2-yl)ethyl]-1-maphthalenyl-2-methylbutanoate, reference compound]
Growth ([1]; 1.5 μmol/L): 71 % of Control
decrease in cell growth ([1]; 2 μM): 50%
Growth ([1]; 2 μmol/L): 50 % of Control and 60 % of Control
Growth ([1]; 2 μmol/L, listed as lovastatin): 50 % of Control
Growth ([1]; 3 μmol/L): 53 % of Control
growth rate relative to controls ([1]; 1.9±0.3 μmol/l, protocol of He, et al.): 61.4±4.6 % the rate of controls
growth of implanted murine melanoma B16F10 tumors [2]: suppressed
reduction in cancer incidence [3]: 33%
dose level at which the incidence and severity of toxicity increased markedly ([4]; Phase I, 7-day courses given monthly, doses 2 to 45 mg/kg): 25 mg/kg
total episodes of toxicity ([4]; sixty of 88 patients): 128 episodes
